Reference: patent US9387199B2, “Compositions and methods for treating clostridium infection and preventing recurrence of infection” (priority 2013, dated 2016)

Tests used:
C. difficile VPI 10463 [1] = test: Murine model of C. difficile infection and treatment (clinical score, survival, relapse), Example 1; conditions: for deaths prevented during the acute infection period: untreated infected survival 38%
C. difficile VPI 10463 [2] = test: Histopathology scoring of cecal and colonic tissues in the murine CDI model; format: in vivo, C57BL/6 mice
IgG = test system: IgG; parameters: species or system mice; conditions: mouse, in vivo
C. difficile NAP1/BI/027 = conditions: infections due to NAP1/BI/027, treated subjects; cited from earlier work
[3] = uninfected mice, 5-day course of drug alone
C. difficile VPI 10463 [4] = test: Cecal clostridial (tcdB qPCR) and toxin (TcdA/TcdB ELISA) burden in the murine CDI model; format: in vivo, C57BL/6 mice
Procedure: Food and water were allowed ad libitum. […] Stool specimens were collected daily.
Genomic DNA was extracted from the stool or cecal samples using a modified protocol for the QIAamp DNA stool minikits (Qiagen). Stool lysis buffer (400 μl) was added to a frozen stool sample-diluent (from enzyme-linked immunosorbent assay [ELISA]) mixture. Samples were then vortexed for 15 s and incubated at 82.5° C. for 5 min. The samples were vortexed for another 15 s and then centrifuged at 14,000 rpm for 2 min. The supernatant was added to a clean 1.5-ml microcentrifuge tube. Thirty microliters of proteinase K was added to the wall of each tube, followed by 400 μl of lysis buffer. Samples were vortexed for 15 s and then incubated at 70° C. for 10 min. After incubation, 400 μl of 100% ethanol was added to each sample and then mixed by vortexing. A total of 650 μl of the sample was then added to a spin column provided in the kit and centrifuged at 14,000 rpm for 1 min. The remaining volume of each sample was then added to the spin column and centrifuged under the same conditions. The samples were washed first with 500 μl of AW1 buffer and centrifuged at 14,000 rpm for 1 min and then with 500 μl of AW2 buffer and centrifuged at 14,000 rpm for 3 min. The DNA was eluted by adding 200 μl of elution buffer to the spin column and then centrifuging at 14,000 rpm for 1 min.

C. difficile = conditions: with drug use; cited from earlier work
[5] = 20 mg/kg oral gavage daily for 5 days
[6] = first week after infection, 20 mg/kg oral gavage daily for 5 days, infected controls 5.7±0.9
[7] = second week postinoculation, infected control 2.7±0.9, uninfected 1.6±0.26

SMILES: CC(=O)Oc1ccccc1C(=O)Nc1ncc([N+](=O)[O-])s1 [nitazoxanide]
- deaths prevented during the acute infection period (C. difficile VPI 10463 [1]; [5]): 60%
- mean clinical score (C. difficile VPI 10463 [1]; [6]): 5±1
- additional deaths in post-acute infection period (C. difficile VPI 10463 [1]; second week postinfection, 20 mg/kg daily for 5 days): no additional deaths were noted
- histopathology score (C. difficile VPI 10463 [2]; first week postinoculation, 20 mg/kg daily, untreated infected 12.5±0.7, max score 15): 11.53±0.9
- histopathology score (C. difficile VPI 10463 [2]; [7]): 4.2±0.6

SMILES: CNC(CC(C)C)C(=O)NC1C(=O)NC(CC(N)=O)C(=O)NC2C(=O)NC3C(=O)NC(C(=O)NC(C(=O)O)c4cc(O)cc(O)c4-c4cc3ccc4O)C(O)c3ccc(c(Cl)c3)Oc3cc2cc(c3OC2OC(CO)C(O)C(O)C2OC2CC(C)(N)C(O)C(C)O2)Oc2ccc(cc2Cl)C1O (stereo not drawn) [vancomycin]
- IgG levels, low dose versus high dose (IgG): higher IgG levels
- rate of recurrence (C. difficile NAP1/BI/027): 23.6%
- weight loss or increase in disease score [3]: did not show weight loss or an increase in disease score
- C. difficile DNA (tcdB) and toxin levels in cecal specimens (C. difficile VPI 10463 [4]; day 3 (peak of infection)): low
- clostridial burden in cecal specimens (C. difficile VPI 10463 [4]; day 6 (1 day after antibiotic was discontinued), persisted on days 9 and 12): increased clostridial burden
- deaths prevented during the acute infection period (C. difficile VPI 10463 [1]; [5]): 100%
- clinical score until recurrence of disease (C. difficile VPI 10463 [1]; 20 mg/kg/day for 5 or 10 days, both treatment groups): < 1
- infected mice that relapsed (C. difficile VPI 10463 [1]; 20 mg/kg/day for 5 days): 67%
- mortality rate, 10-day versus 5-day course (C. difficile VPI 10463 [1]; 20 mg/kg/day for 10 days): higher mortality rate
- time from end of treatment to relapse (C. difficile VPI 10463 [1]; 20 mg/kg/day, 5-day treatment course): 4 days
- time from discontinuation to relapse (C. difficile VPI 10463 [1]; 20 mg/kg/day, 10-day treatment course): 3 days
- weight loss and clinical outcomes by duration of treatment (C. difficile VPI 10463 [1]; 50 mg for 1 day only, versus 2, 3, 5 days): least weight loss and best clinical outcomes
- overall mortality rate (C. difficile VPI 10463 [1]; 50 mg given for 5 days, infected controls 75%): 100%
- deaths (C. difficile VPI 10463 [1]; by day 9 and onwards, after 5-day treatment at 20 mg/kg): 62%
- mean clinical score (C. difficile VPI 10463 [1]; [6]): 1.7±0.3
- mean clinical score (C. difficile VPI 10463 [1]; second week postinfection, 20 mg/kg daily for 5 days, surviving untreated infected mice 2.6): 6.2±0.2
- histopathology score (C. difficile VPI 10463 [2]; at the peak of infection (day 3), uninfected control 2.2±1): 4.5±1.6
- histopathology score (C. difficile VPI 10463 [2]; [7]): 9.3±0.9

SMILES: Cc1ncc([N+](=O)[O-])n1CCO [metronidazole]
- infected mice that relapsed (C. difficile VPI 10463 [1]; 20 mg/kg/day for 5 days): none
- weight loss or diarrhea while on antibiotics (C. difficile VPI 10463 [1]; 20 mg/kg/day for 5 days, infected mice): had diarrhea and weight loss during treatment
- mice that died of infection during treatment (C. difficile VPI 10463 [1]; 20 mg/kg/day for 5 days, 6 mice per group): one mouse
- recurrence rate (C. difficile): ≤ 50%
